Our source for the GI50 and TGI values is PubChem BioAssay (NCI).

Values joined by “and” are separate entries in the source; they are usually repeats but may differ in a detail not shown here. Equal entries are not always repeated.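 Where inhibition never reached the appropriate level, the endpoint shown equals the highest concentration tested. Otherwise, values were interpolated linearly from a five-concentration, 48-hour dose response in 96-well plates. GI50 marks 50% less growth. TGI is the concentration that stops growth completely.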 Some results are limits rather than exact numbers.

What all share (assay): growth of human tumour cells (NCI), 48 h
Assay [1] relates to OVCAR-3 ovarian.
For assay [2], the system named is NCI-H460 lung.
Assay [3] concerns OVCAR-4 ovarian.
The subject of assay [4] is RXF 393 renal.
The test system of assay [5] is SK-OV-3 ovarian.
Assay [6] concerns HT29 colon.
Assay [7] concerns SK-MEL-2 melanoma.
In assay [8] the test system is OVCAR-8 ovarian.
Assay [9] relates to HOP-62 NSCLC.
The test system of assay [10] is TK-10 renal.

In the case of `O=C(O)Cn1ccc2ccccc21`, the GI50 in assay [1], in assay [2], in assay [3], in [4], in [5] and in [6] was > 100 µM in each case. Further, the GI50 in [7], in assay [8] and in assay [9] was > 100 µM throughout. The TGI in assay [1], in [2], in assay [3], in assay [4], in assay [5] and in assay [6] was > 100 µM in each case. Also, the TGI in assay [7], in assay [8] and in assay [9] was > 100 µM throughout.
`COc1ccc(-c2nn3ncccc3c2-c2ccnc(Nc3ccc4c(c3)OCCO4)n2)cc1`: the GI50 is 9.86 µM in assay [1]; 8.74 µM in assay [2]; 9.19 µM in assay [3]; 4.54 µM in assay [10]; 3.27 µM in assay [4]; 4.08 µM in [5]. Also, the GI50 was 4.29 µM in assay [6], 7.39 µM in assay [7], 7.3 µM in assay [8] and 9.64 µM in assay [9]. The TGI is > 25 µM in assay [1]; > 25 µM in assay [2]; > 25 µM in [3]; 18.5 µM in [10]; > 25 µM in assay [4]; > 20.8 µM in assay [5]. Also, the TGI in assay [6] was > 23.8 µM; in assay [7], > 21 µM; in assay [8] it was > 25 µM; in assay [9], > 25 µM.
For `O=C1C=C(Nc2ccc(S(=O)(=O)Nc3ncccn3)cc2)c2ccccc2C1=O`, the TGI in assay [1] was 30.5 µM; in assay [2], 42.7 µM; in assay [3], 38.8 µM; in [10] it was > 100 µM; in assay [4], 48 µM; in [5], 90.7 µM. In addition, the TGI in [6] was 45 µM; in assay [7], 85.2 µM; in [8] it was 42.4 µM; in assay [9], 54.6 µM.
For `NC(CSC(c1ccccc1)(c1ccccc1)c1ccc(F)cc1)C(=O)O` (configuration not stated), the GI50 in assay [1] was 0.355 µM; in assay [2] it was 0.336 µM; in assay [3] it was 9.62 µM; in assay [10], 13.3 µM; in [4] it was 0.414 µM; in [5] it was 0.348 µM. For the same compound, the GI50 was 0.803 µM in assay [6], 1.95 µM in assay [7], 0.493 µM in assay [8] and 3.04 µM in [9]. For the same compound, the TGI in [1] is 4.38 µM; in assay [2] it was 14.9 µM; in [3], > 100 µM; in [10], > 100 µM; in assay [5] it was 24.1 µM; in assay [6], > 27.8 µM. The TGI was 41.7 µM in [8] and > 85.6 µM in assay [9].
Consider `CCCCCCCCCCOC(=O)c1cc[n+](C)cc1`, for which the TGI in assay [1] was 28.9 µM; in assay [2], 38.8 µM; in assay [3], 33 µM; in assay [10], 31.8 µM; in [4] it was 34.3 µM; in assay [5] it was 29.6 µM. The TGI was found to be 31.1 µM in assay [6], 49.1 µM in assay [7], 31.4 µM in assay [8] and 30.6 µM in assay [9].
For `C/C(CC(=O)Nc1ccc(NC(=O)C/C(C)=N\NC(N)=O)cc1)=N/NC(N)=O`, the TGI in [1], in assay [2], in [3], in assay [10], in assay [4] and in assay [5] was > 100 µM throughout. Further, the TGI in [6], in assay [7], in assay [8] and in assay [9] was > 100 µM throughout.
For the compound `CNCCCNc1c2ccccc2nc2cccc([N+](=O)[O-])c12`, the TGI was 0.0149 µM in [1]; 0.00221 µM and 0.0103 µM in [2]; 0.00543 µM in assay [3]; 0.0327 µM in assay [10]; 0.00217 µM in assay [4]; 0.0427 µM in assay [5]. In addition, the TGI was 0.0185 µM in [6], 0.00798 µM in assay [7], 0.0205 µM in assay [8] and 0.0129 µM in assay [9].
As to `COC(=O)CC(C(C(C)=O)C(=O)OCc1ccccc1)N1C(=O)OC(c2ccccc2)C1c1ccccc1` (configuration not stated), the TGI is 75.3 µM and > 100 µM in [1]; > 100 µM in assay [2]; > 100 µM in [10]; > 100 µM in [4]; > 100 µM in assay [5]; > 100 µM in [6]. Besides, the TGI in [7], in assay [8] and in [9] was > 100 µM in each case. Further, the GI50 in [4] is 29.1 µM and 84.9 µM.
With `C1CC2=C(C1)C1=S(S2)SC2=C1CCC2`, the TGI in assay [1], in [2], in [3], in [10], in assay [4] and in assay [5] was > 100 µM each time. Further, the TGI in assay [6], in [7] and in [8] was > 100 µM throughout.
For `C/C(O)=C(\N=O)C(=O)NCc1ccccc1`, the TGI in assay [1], in assay [2], in [10], in [4], in assay [5] and in [6] was > 100 µM in each case. For the same compound, the TGI in [7], in assay [8] and in assay [9] was > 100 µM each time.
Take `O=C([CH-]C(=O)c1ccccc1)c1ccccc1.O=C([CH-]C(=O)c1ccccc1)c1ccccc1.O=C([CH-]C(=O)c1ccccc1)c1ccccc1.[Cl-].[Zr+4]`: the GI50 in assay [1] is 10.6 µM; in [2], 10.8 µM; in [3] it was 15.9 µM; in [10] it was 27.6 µM; in assay [4], 15 µM; in assay [5], 37.8 µM. Further, the GI50 in [6] is 29 µM; in [7], 10 µM; in [9], 20.1 µM. The TGI in [1] is 39.4 µM; in [2], 53.8 µM; in [3], 88.4 µM; in [10], 72.4 µM; in assay [4] it was 71.9 µM; in assay [5] it was 74.5 µM. Further, the TGI in assay [6] is > 100 µM; in assay [7], 41.2 µM; in assay [9], 75.5 µM.
